Assay results from patent US9695155B2, “Herbicidal substituted pyrimidinyloxy benzene compounds” (E. I. DU PONT DE NEMOURS AND COMPANY, priority 2013, dated 2017).

How the values were obtained:
yellow nutsedge = assay: Test C postemergence; type: in vivo, Cyperus esculentus
Method in brief: (§1)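 Sown in loam/sand → sprayed pre-emergence; or grown to 1–4 leaves in peat mix → sprayed post-emergence. Same solvent/surfactant formulation both ways. Greenhouse 13–15 d. Score 0–100 visual.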

wheat [1] = assay: Test A preemergence; type: in vivo, Triticum aestivum
Method in brief: (§2)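 Pre- and postemergence greenhouse screen. Soil: loam + sand. Spray carrier: solvent mixture, non-phytotoxic, with surfactant. Post timing at 1–2 leaves, height 2–10 cm. Readout: visual injury on a 0–100 scale roughly 10 days after application, untreated plants as reference.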

galium = assay: Test C preemergence; type: in vivo, Galium aparine; conditions: Galium, pre-emergence
Method in brief: as §1

velvetleaf = assay: Test C postemergence; type: in vivo, Abutilon theophrasti
Method in brief: as §1

johnsongrass = assay: Test C postemergence; type: in vivo, Sorghum halepense; conditions: Sorghum halepense, post-emergence
Method in brief: as §1

morningglory = assay: Test A preemergence; type: in vivo, Ipomoea spp.
Method in brief: as §2

wheat [2] = assay: Test A postemergence; type: in vivo, Triticum aestivum; conditions: Triticum aestivum, post-emergence, 240 h, 0 to 100 scale where 0 is no effect and 100 is complete control
Method in brief: as §2

pigweed [3] = assay: Test A preemergence; type: in vivo, Amaranthus retroflexus
Method in brief: as §2

giant foxtail = assay: Test C postemergence; type: in vivo, Setaria faberii; conditions: Setaria faberi, post-emergence
Method in brief: as §1

large (Lg) crabgrass = assay: Test C postemergence; type: in vivo, Digitaria sanguinalis; conditions: Digitaria sanguinalis, post-emergence
Method in brief: as §1

sedge, umbrella = assay: Test B flooded paddy test; type: in vivo, Cyperus difformis; conditions: Cyperus difformis, Flood, 250 g ai/ha; 0 to 100 scale where 0 is no effect and 100 is complete control; read-out: Plant response rating, Sedge, Umbrella
Method in brief: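 Greenhouse flooded-pot test: compounds dosed into 3 cm standing water over 2-leaf plants, flood held constant. Rated visually after 13–15 days on 0–100 (complete control = 100); a dash marks no test result.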

oilseed rape = assay: Test C postemergence; type: in vivo, Brassica napus
Method in brief: as §1

Italian ryegrass = assay: Test C preemergence; type: in vivo, Lolium multiflorum; conditions: Lolium multiflorum, pre-emergence
Method in brief: as §1

soybean = assay: Test C postemergence; type: in vivo, Glycine max
Method in brief: as §1

pigweed [4] = assay: Test A postemergence; type: in vivo, Amaranthus retroflexus; conditions: Amaranthus retroflexus, post-emergence, 0 to 100 scale where 0 is no effect and 100 is complete control
Method in brief: as §2

[5] = 31 g ai/ha, postemergence, visual rating, scale 0 to 100 (0 no effect, 100 complete control), 13 to 15 days

Q: Which “Nutsedge, Yellow plant response rating” value (yellow nutsedge; [5]) does the source give for `FC(F)c1cccc(Oc2ncc(Cl)cn2)c1-n1cc(Br)cn1` [Compound 194, 2-[2-(4-bromo-1H-pyrazol-1-yl)-3-(difluoromethyl)phenoxy]-5-chloropyrimidine] here?
A: Its value is 5.

Q: What about the pest or weed control at 125 g/ha (yellow nutsedge; Cyperus, post-emergence, 125 g ai/ha, postemergence, visual rating, scale 0 to 100 (0 no effect, 100 complete control), read-out: Plant response rating, Nutsedge, Yellow) of the same compound?
A: The pest or weed control at 125 g/ha was 5%.

Q: What about the pest or weed control at 250 g/ha (yellow nutsedge; Cyperus, post-emergence, 250 g ai/ha, postemergence, read-out: Plant response rating (0 to 100), Nutsedge, Yellow) of the same compound?
A: Its pest or weed control at 250 g/ha is 5%.

Q: And the pest or weed control at 62 g/ha (yellow nutsedge; Cyperus, post-emergence, Postemergence, 62 g ai/ha, scale 0 to 100 (0 no effect, 100 complete control), 13 to 15 days, read-out: Plant response rating, Nutsedge, Yellow)?
A: The pest or weed control at 62 g/ha was 5%.

Q: What about the “Wheat plant response rating (0 to 100 scale)” value (wheat [1]; 125 g ai/ha) of the same compound?
A: The value was 20.

Q: And the plant injury at 500 g/ha (wheat [1]; Triticum aestivum, pre-emergence, 240 h, 500 g ai/ha, 0 to 100 scale where 0 is no effect and 100 is complete control, read-out: Wheat plant response rating)?
A: Its plant injury at 500 g/ha is 30%.

Q: What about the pest or weed control at 125 g/ha (galium; 125 g ai/ha, preemergence, scale 0 (no effect) to 100 (complete control), read-out: Galium plant response rating) of the same compound?
A: Its pest or weed control at 125 g/ha is 90%.

Q: And the pest or weed control at 250 g/ha (galium; 250 g ai/ha, preemergence, scale 0 (no effect) to 100 (complete control), read-out: Galium plant response rating)?
A: Its pest or weed control at 250 g/ha is 100%.

Q: And the pest or weed control at 62 g/ha (galium; Preemergence, 62 g ai/ha, scale 0 to 100, 0 no effect, 100 complete control, read-out: Plant response rating, Galium)?
A: Its pest or weed control at 62 g/ha is 90%.

Q: What about the “Velvetleaf plant response rating” value (velvetleaf; [5]) of the same compound?
A: Its value is 40.

Q: And the pest or weed control at 125 g/ha (velvetleaf; Abutilon theophrasti, post-emergence, 125 g ai/ha, postemergence, visual rating, scale 0 to 100 (0 no effect, 100 complete control), read-out: Plant response rating, Velvetleaf)?
A: Its pest or weed control at 125 g/ha is 70%.

Q: What about the pest or weed control at 250 g/ha (velvetleaf; Abutilon theophrasti, post-emergence, 250 g ai/ha, postemergence, read-out: Plant response rating (0 to 100), Velvetleaf) of the same compound?
A: The pest or weed control at 250 g/ha was 75%.

Q: What about the pest or weed control at 62 g/ha (velvetleaf; Abutilon theophrasti, post-emergence, Postemergence, 62 g ai/ha, scale 0 to 100 (0 no effect, 100 complete control), 13 to 15 days, read-out: Plant response rating, Velvetleaf) of the same compound?
A: The pest or weed control at 62 g/ha was 45%.

Q: And the pest or weed control at 125 g/ha (johnsongrass; 125 g ai/ha, postemergence, visual rating, scale 0 to 100 (0 no effect, 100 complete control), read-out: Plant response rating, Johnsongrass)?
A: The pest or weed control at 125 g/ha was 25%.

Q: And the pest or weed control at 250 g/ha (johnsongrass; 250 g ai/ha, postemergence, read-out: Plant response rating (0 to 100), Johnsongrass)?
A: Its pest or weed control at 250 g/ha is 35%.

Q: What about the pest or weed control at 62 g/ha (johnsongrass; Postemergence, 62 g ai/ha, scale 0 to 100 (0 no effect, 100 complete control), 13 to 15 days, read-out: Plant response rating, Johnsongrass) of the same compound?
A: Its pest or weed control at 62 g/ha is 5%.

Q: What about the “Morningglory plant response rating (0 to 100 scale)” value (morningglory; 125 g ai/ha) of the same compound?
A: Its value is 60.

Q: What about the pest or weed control at 500 g/ha (morningglory; Ipomoea, pre-emergence, 240 h, 500 g ai/ha, 0 to 100 scale where 0 is no effect and 100 is complete control, read-out: Morningglory plant response rating) of the same compound?
A: The pest or weed control at 500 g/ha was 100%.

Q: What about the plant injury at 125 g/ha (wheat [2]; 125 g ai/ha, read-out: Wheat plant response rating) of the same compound?
A: The plant injury at 125 g/ha was 30%.

Q: What about the plant injury at 500 g/ha (wheat [2]; 500 g ai/ha, read-out: Plant response rating, Wheat) of the same compound?
A: The plant injury at 500 g/ha was 60%.

Q: And the “Pigweed plant response rating (0 to 100 scale)” value (pigweed [3]; 125 g ai/ha)?
A: The value was 100.

Q: What about the pest or weed control at 500 g/ha (pigweed [3]; Amaranthus retroflexus, pre-emergence, 240 h, 500 g ai/ha, 0 to 100 scale where 0 is no effect and 100 is complete control, read-out: Pigweed plant response rating) of the same compound?
A: Its pest or weed control at 500 g/ha is 100%.

Q: What about the pest or weed control at 31 g/ha (giant foxtail; 31 g ai/ha, postemergence, visual rating, scale 0 to 100 (0 no effect, 100 complete control), 13 to 15 days, read-out: Foxtail, Giant plant response rating) of the same compound?
A: The pest or weed control at 31 g/ha was 10%.

Q: And the pest or weed control at 125 g/ha (giant foxtail; 125 g ai/ha, postemergence, visual rating, scale 0 to 100 (0 no effect, 100 complete control), read-out: Plant response rating, Foxtail, Giant)?
A: The pest or weed control at 125 g/ha was 15%.

Q: And the pest or weed control at 250 g/ha (giant foxtail; 250 g ai/ha, postemergence, read-out: Plant response rating (0 to 100), Foxtail, Giant)?
A: The pest or weed control at 250 g/ha was 15%.

Q: And the pest or weed control at 62 g/ha (giant foxtail; Postemergence, 62 g ai/ha, scale 0 to 100 (0 no effect, 100 complete control), 13 to 15 days, read-out: Plant response rating, Foxtail, Giant)?
A: Its pest or weed control at 62 g/ha is 10%.

Q: What about the pest or weed control at 31 g/ha (large (Lg) crabgrass; 31 g ai/ha, postemergence, visual rating, scale 0 to 100 (0 no effect, 100 complete control), 13 to 15 days, read-out: Crabgrass, Large plant response rating) of the same compound?
A: The pest or weed control at 31 g/ha was 10%.

Q: What about the pest or weed control at 125 g/ha (large (Lg) crabgrass; 125 g ai/ha, postemergence, visual rating, scale 0 to 100 (0 no effect, 100 complete control), read-out: Plant response rating, Crabgrass, Large) of the same compound?
A: Its pest or weed control at 125 g/ha is 10%.

Q: What about the pest or weed control at 250 g/ha (large (Lg) crabgrass; 250 g ai/ha, postemergence, read-out: Plant response rating (0 to 100), Crabgrass, Large) of the same compound?
A: The pest or weed control at 250 g/ha was 50%.

Q: What about the pest or weed control at 62 g/ha (large (Lg) crabgrass; Postemergence, 62 g ai/ha, scale 0 to 100 (0 no effect, 100 complete control), 13 to 15 days, read-out: Plant response rating, Crabgrass, Large) of the same compound?
A: Its pest or weed control at 62 g/ha is 10%.

Q: And the pest or weed control at 250 g/ha (sedge, umbrella)?
A: The pest or weed control at 250 g/ha was 95%.

Q: What about the “Oilseed Rape plant response rating” value (oilseed rape; [5]) of the same compound?
A: Its value is 30.

Q: What about the plant injury at 125 g/ha (oilseed rape; Brassica napus, post-emergence, 125 g ai/ha, postemergence, visual rating, scale 0 to 100 (0 no effect, 100 complete control), read-out: Plant response rating, Oilseed Rape) of the same compound?
A: The plant injury at 125 g/ha was 85%.

Q: What about the plant injury at 250 g/ha (oilseed rape; Brassica napus, post-emergence, 250 g ai/ha, postemergence, read-out: Plant response rating (0 to 100), Oilseed Rape) of the same compound?
A: The plant injury at 250 g/ha was 90%.

Q: What about the plant injury at 62 g/ha (oilseed rape; Brassica napus, post-emergence, Postemergence, 62 g ai/ha, scale 0 to 100 (0 no effect, 100 complete control), 13 to 15 days, read-out: Plant response rating, Oilseed Rape) of the same compound?
A: Its plant injury at 62 g/ha is 40%.

Q: What about the pest or weed control at 125 g/ha (Italian ryegrass; 125 g ai/ha, preemergence, scale 0 (no effect) to 100 (complete control), read-out: Ryegrass, Italian plant response rating) of the same compound?
A: Its pest or weed control at 125 g/ha is 70%.

Q: And the pest or weed control at 250 g/ha (Italian ryegrass; 250 g ai/ha, preemergence, scale 0 (no effect) to 100 (complete control), read-out: Ryegrass, Italian plant response rating)?
A: Its pest or weed control at 250 g/ha is 90%.

Q: What about the pest or weed control at 62 g/ha (Italian ryegrass; Preemergence, 62 g ai/ha, scale 0 to 100, 0 no effect, 100 complete control, read-out: Plant response rating, Ryegrass, Italian) of the same compound?
A: Its pest or weed control at 62 g/ha is 20%.

Q: What about the “Soybean plant response rating” value (soybean; [5]) of the same compound?
A: Its value is 30.

Q: And the Soybean plant response rating (crop injury, 0-100 scale) at 125 g/ha (soybean; Glycine max, post-emergence, 125 g ai/ha, postemergence, visual rating, scale 0 to 100 (0 no effect, 100 complete control), read-out: Plant response rating, Soybean)?
A: The Soybean plant response rating (crop injury, 0-100 scale) at 125 g/ha was 75%.

Q: And the Soybean plant response rating (crop injury, 0-100 scale) at 250 g/ha (soybean; Glycine max, post-emergence, 250 g ai/ha, postemergence)?
A: The Soybean plant response rating (crop injury, 0-100 scale) at 250 g/ha was 85%.

Q: What about the Soybean plant response rating (crop injury, 0-100 scale) at 62 g/ha (soybean; Glycine max, post-emergence, Postemergence, 62 g ai/ha, scale 0 to 100 (0 no effect, 100 complete control), 13 to 15 days) of the same compound?
A: Its Soybean plant response rating (crop injury, 0-100 scale) at 62 g/ha is 50%.

Q: What about the pest or weed control at 500 g/ha (pigweed [4]; 500 g ai/ha, read-out: Plant response rating, Pigweed) of the same compound?
A: The pest or weed control at 500 g/ha was 100%.

Q: What about the pest or weed control at 125 g/ha (pigweed [4]; 240 h, 125 g ai/ha, read-out: Pigweed plant response rating) of the same compound?
A: Its pest or weed control at 125 g/ha is 100%.
